# Experimental data taken from patent US7371780B2, “Use of calphostin C to treat drug-resistant tumor cells” (priority 2003, dated 2008).
# Legend:
# [1] = test system: MDA-MB231 human breast cancer cells; assay: Death and cytoplasmic vacuolization, MDA-MB231; assay type: cell-based; settings: data not shown
# [2] = test system: caspase-8, PARP and cytochrome C in MCF-7DOX cells; assay: Immunoblotting of apoptosis markers, MCF-7DOX; assay type: cell-based, human
# Procedure: (§1) For preparation of mitochondrial and cytoplasmic cellular fractions, MCF-7, MCF-7TAX, and MCF-7DOX cells were grown in a monolayer to 70-90% confluence on 10 cm tissue culture plates. Twenty-four hours prior to extraction, the cells were treated with 50 nM light-activated calphostin C as described above. After this treatment, the cells were trypsinized, centrifuged at 1000 rpm in a Beckman GP centrifuge and washed with PBS. To the resulting cell pellet, 1 ml of ice-cold homogenization (HM) buffer was added. This buffer consisted of 85.55 g sucrose, 1.406 g MOPS, 0.292 g EDTA, and 1 ml ethanol per liter of solution, with a final pH of 7.2. Prior to use, 0.2 ml of 0.1 M PMSF, 1 Complete™ protease inhibitor tablet (Roche Diagnostics, Laval, QC), and 20 μl of 1 M DTT was added for 100 ml of HM buffer. Cells were then lysed 10 times by homogenization in a 2 ml dounce homogenizer. Nuclei in the lysate were then pelleted by centrifugation in a microfuge tube at 70 g for 10 minutes at 4° C. and the supernatant carefully removed. The supernatant was clarified by centrifugation at 1950 g for 10 minutes at 4° C. and the pellet (containing mitochondria) was resuspended in 50 μl of HM buffer. The remaining clarified supernatant was deemed the cytoplasmic fraction. […]
# [3] = test system: caspase-8, PARP and cytochrome C in MCF-7TAX cells; assay: Immunoblotting of apoptosis markers, MCF-7TAX; assay type: cell-based, human
# Procedure: as §1
# [4] = test system: human 293T embryonic kidney cells; assay: Death and cytoplasmic vacuolization, 293T; assay type: cell-based; settings: data not shown
# MCF-7 cells = assay: Microscopic cell morphology (bright field, AO/EB, PI), MCF-7; assay type: cell-based, human; settings: 50 nM light-activated calphostin C
# Procedure: For microscopic observation, cells were seeded onto standard glass coverslips in 10 cm tissue culture plates with 10 ml of H21 medium and grown for 2 days until 40-50% confluence was obtained. After treatment with paclitaxel, doxorubicin or calphostin C, the cells on the glass coverslips were washed twice with PBS (2.7 mM KCl, 1.0 mM KH2PO4, 137 mM NaCl, 10 mM Na2HPO4, pH 7.4) and stained with acridine orange/ethidium bromide (each at 4 μg/ml in PBS) for 10 min at 37° C.. The coverslips were then washed three times in PBS and mounted onto standard glass slides for morphological evaluation. For propidium iodide (PI) staining, the cells on coverslips were washed twice with PBS and fixed in methanol (cooled to −20° C.) for 20 min. Thirty μl of propidium iodide (PI) staining solution (100 μg/ml PI, 0.1% sodium citrate, 100 μg/ml RNase A and 0.3% Nonidet P-40) were then applied to the coverslips for 5 min. […] The cells were then examined using a Zeiss Axiovert 100 inverted fluorescence microscope. […] For each sample, the number of dead cells was determined by visualization after ethidium bromide staining, whereby only dead cells which have lost membrane integrity allow entry of cell-impermeable ethidium bromide into cells to complex with DNA and induce bright red fluorescence. […] The images were recorded and overlayed using Northern Eclipse software (Empix Imaging Inc., Mississauga, ON).
# MCF-7TAX cells = assay: Flow cytometric sub-G1 DNA content, MCF-7TAX; assay type: cell-based, human; settings: 100 nM calphostin C, 2 h light
# Procedure: For flow cytometric analysis, cells at about 50% to 60% confluence were released from their flasks by trypsin treatment and washed with PBS. After centrifugation at 1000 rpm for 5 min, cells were then fixed by resuspension in 75% ethanol for 2 hours, collected by centrifugation, and resuspended in PI staining solution (see above) for 1 h. For each sample, approximately 2×10^4 cells were analyzed using a Beckman Coulter Epics® Elite flow cytometer. Fluorescence intensity upon stimulation with an argon-ion laser at 488 nm was measured using the PMT4 channel (625DL filter) and plotted against cell number. The percentage of cells with a sub-G1 DNA content was determined by the flow cytometer, adjusting the gates such that only cells with a fluorescence lower than the peak for untreated cells in G1 are counted (see FIG. 4).
# [5] = light-activated calphostin C, whole cell extracts
# [6] = mitochondrial and cytoplasmic fractions
smiles,measurement,setting,value
COc1c(C[C@@H](C)OC(=O)Oc2ccc(O)cc2)c2c3c(C[C@@H](C)OC(=O)c4ccccc4)c(OC)c(=O)c4c(O)cc(OC)c(c5c(OC)cc(O)c(c1=O)c52)c43 [calphostin C],induction of death and cytoplasmic vacuolization,[1],induce both death and cytoplasmic vacuolization
same,caspase-8 and PARP cleavage (protein levels),[2]; [5],did not result in any change
same,release of cytochrome C from mitochondria,[2]; [6],no clear evidence for the release of cytochrome C
same,caspase-8 and PARP cleavage (protein levels),[3]; [5],did not result in any change
same,release of cytochrome C from mitochondria,[3]; [6],no clear evidence for the release of cytochrome C
same,induction of death and cytoplasmic vacuolization,[4],induce both death and cytoplasmic vacuolization
same,percentage of cells showing cytoplasmic vacuoles,MCF-7 cells,Over 50%
same,time of strong increase in percentage of sub-G1 cells after treatment,MCF-7TAX cells,8 h
